Experimental data from publication PMC7684578, “Isopedopeptins A–H: Cationic Cyclic Lipodepsipeptides from Pedobacter cryoconitis UP508 Targeting WHO Top-Priority Carbapenem-Resistant Bacteria” (ACS Chemical Biology, 2020).
≈ marks a conversion by molar mass, not a printed value. Starred links: 1 amine or outer side, 2 acyl side, 3 side chain; linkers in the order of their positions; H or OH if unused. Positions of bridges follow the written chain, without caps; N, C: chain ends. Non-standard residues stand in square brackets, D forms with d. Residues, ends and D or L forms follow the SMILES beside them. X4 = CC(C)CCC=CCCC[C@H](CC(=O)[*:1])O[*:2]; X6 = CC(C)CCCCC=CC[C@H](CC(=O)[*:1])O[*:2]; X5 = CC(C)CCCCCCC[C@H](CC(=O)[*:1])O[*:2]; X3 = CC(C)CCCCC[C@H](CC(=O)[*:1])O[*:2]; X7 = CCCCCCC=CC[C@H](CC(=O)[*:1])O[*:2]; X2 = CCCCCCC[C@H](CC(=O)[*:1])O[*:2]; Val(3-OH) = CC(C)(O)[C@H](N)C(=O)O; X1 = C/C=C(/N[*:1])C(=O)[*:2]; Dab = NCC[C@H](N)C(=O)O; Dap = NC[C@H](N)C(=O)O

Tested on: P. aeruginosa LMG6395T
Test: MIC, broth micro-dilution, primary panel
Assay type: cell-based, Pseudomonas aeruginosa
Details: WT; for MIC: Pseudomonas aeruginosa, LMG6395T
Procedure: Isopedopeptin E (5): off-white solid; [α] D20 –36° (c 0.3 in methanol); UV (MeOH) λ max (log10 ε) 240 (3.8); 1H NMR (DMSO-d 6, 600 MHz), see Table S5; 13C NMR (DMSO-d 6, 150 MHz), see Table […]
Isopedopeptin F (6): off-white solid; [α] D20 –32° (c 0.05 in methanol); UV (MeOH) λ max (log10 ε) 240 (3.8); 1H NMR (DMSO-d 6, 600 MHz), see Table S6; 13C NMR (DMSO-d 6, 150 MHz), see Table […]
Isopedopeptin G (7): off-white solid; [α] D20 –49° (c 0.1 in methanol); UV (MeOH) λ max (log10 ε) 240 (4.0); 1H NMR (DMSO-d 6, 600 MHz), see Table S7; 13C NMR (DMSO-d 6, 150 MHz), see Table […]
Isopedopeptin H (8): off-white solid; [α] D20 –56° (c 0.2 in methanol); UV (MeOH) λ max (log10 ε) 240 (4.0); 1H NMR (DMSO-d 6, 600 MHz), see Table S8; 13C NMR (DMSO-d 6, 150 MHz), see Table […]
Minimal Inhibitory Concentration (MIC) against the primary panel of microorganisms.
The MIC for compounds 1–8 was measured by means of a broth micro-dilution method in 96-wells microtiter plates with the addition of E. coli LMG15862, LMG1041 T, E. cloacaeA. baumannii […]
H-29 and A. fumigatus J7, as test organisms. The test media were AM3 Broth (BD Difco Ltd) mixed with phosphate buffered saline (PBS, Amresco LLC, Solon, USA) in 1:4 ratio (E. coli, A. baumannii, E. cloacae, K. pneumoniae and P. aeruginosa), AM3 Broth mixed with PBS in 1:1 ratio (S. aureus), ME (A. fumigatus) and ISP2 (C. albicans). Prior to MIC determination, the cell concentration of tested bacterial/fungal pathogens was adjusted to ≅ 4 × 10^5 CFU/mL (acceptable range 2 – 6 × 10^5 CFU/mL). Cell concentration was confirmed by colony counting after diluting and plating the respective bacterial pathogen on VPA plates [VPA, 10 g Vegetable Peptone Broth (Oxoid Ltd., Basingstoke,UK), 15 g Bacto Agar (Difco Ltd, Tyrone) in 1 L deionised water] directly after each of MIC-tests. The cells of C. albicans were plated on ISP2 agar plates [ISP2, 15 g Bacto Agar (Difco Ltd) in 1 L deionised water] and respectively spores of A. fumigatus were plated on MEA plates.
Plates were, subsequently, incubated at 37 °C in the dark, and viable colonies counted after 16 to 24 h.
To estimate MIC values (concentration range between 0.05 and 50 µg/mL), solutions of the tested compounds (100, 10 and 1 and if needed 0.1 µg/mL in MeOH) were dispensed into wells of microtiter plate(s) and the solvent was evaporated in a fume-hood. Subsequently, suspensions of pathogen cells in the appropriate medium were dispensed to the wells of microtiter plates and the growth of pathogens were observed after 16 to 20 h of incubation at 37 °C in the dark. Positive controls were the respective pathogen cells suspended in untreated sterile media without addition of compounds(s) and negative controls were the media only. MIC values were defined as the lowest concentration of each compound with no visible growth of pathogen. All MIC tests were performed in triplicate and […]
MIC determination for compound 2 against an extended panel of bacterial strains.
Compound 2 was evaluated against a panel of Gram-negative bacteria (Hughes strain collection), including: A. baumannii ATCC 19606, wild-type; BM4454, multidrug-resistant clinical isolate; BM4652, efflux-defective derivative of BM4454; CH9622, colistin-resistant clinical isolate; E. coli ATCC 25922, wild-type; CH3130, efflux-defective ΔtolC mutant isogenic to ATCC 25922; D22, a drug-hypersensitive lpxC mutant of E. coli; CH3491, multidrug-resistant clinical isolate; CH9623 and CH9624, colistin-resistant clinical isolates carrying mcr-1; K. pneumoniae ATCC 13833, wild-type; […]
clinical isolate; CH9625 and CH9626, colistin-resistant clinical isolates; P. aeruginosa PAO1, wild-type; PAO750, efflux-defective mutant isogenic to PAO1. The in vitro antimicrobial activity of each compound was determined by measuring the MIC value using the broth micro-dilution technique in cation-adjusted Mueller-Hinton II broth (Becton-Dickinson, 212322) according to EUCAST and CLSI guidelines. Each compound prepared in MHII medium was dispensed into a 96-well round- […]

| Compound | MIC [µg/mL] | MIC P. aeruginosa LMG6395T [µg/mL] |
| --- | --- | --- |
| C/C=C1/NC(=O)[C@H](CCN)NC(=O)[C@H](CC(C)C)NC(=O)[C@H](CN)NC(=O)C[C@@H](CCCCCC(C)C)OC(=O)[C@H](CC(=O)O)NC(=O)[C@H](C(C)(C)O)NC(=O)[C@@H](Cc2ccccc2)NC(=O)[C@H](CN)NC(=O)[C@H]([C@@H](C)O)NC1=O [Compound 1, cyclo(3-hydroxy-9-methyldecanoyl-DAPA1-Leu-DABA-ABA-Thr-DAPA2-Phe-OHVal-Asp)] ([Dap]L[Dab][X1]T[Dap][dF][Val(3-OH)]D; linker N-C via X3) | 8 to 16 (≈ 7.07 to 14.1 µM) | 16 (≈ 14.1 µM) |
| C/C=C1/NC(=O)[C@H](CCN)NC(=O)[C@H](CC(C)C)NC(=O)[C@H](CN)NC(=O)C[C@@H](CCCCCCC)OC(=O)[C@H](CC(=O)O)NC(=O)[C@H](C(C)(C)O)NC(=O)[C@@H](Cc2ccccc2)NC(=O)[C@H](CN)NC(=O)[C@H]([C@@H](C)O)NC1=O [Compound 2, isopedopeptin B] ([Dap]L[Dab][X1]T[Dap][dF][Val(3-OH)]D; linker N-C via X2) | 8 to 16 (≈ 7.16 to 14.3 µM) | 16 (≈ 14.3 µM) |
| C/C=C1/NC(=O)[C@H](CCN)NC(=O)[C@H](CC(C)C)NC(=O)[C@H](CN)NC(=O)C[C@@H](CC=CCCCCCC)OC(=O)[C@H](CC(=O)O)NC(=O)[C@H](C(C)(C)O)NC(=O)[C@@H](Cc2ccccc2)NC(=O)[C@H](CN)NC(=O)[C@H]([C@@H](C)O)NC1=O [Compound 3, isopedopeptin C] ([Dap]L[Dab][X1]T[Dap][dF][Val(3-OH)]D; linker N-C via X7) | 32 (≈ 28 µM) |  |
| C/C=C1/NC(=O)[C@H](CCN)NC(=O)[C@H](CC(C)C)NC(=O)[C@H](CN)NC(=O)C[C@@H](CCCCCCC)OC(=O)[C@H](CC(=O)O)NC(=O)[C@H](C(C)C)NC(=O)[C@@H](Cc2ccccc2)NC(=O)[C@H](CN)NC(=O)[C@H]([C@@H](C)O)NC1=O [Compound 4, isopedopeptin D] ([Dap]L[Dab][X1]T[Dap][dF]VD; linker N-C via X2) | > 32 |  |
| C/C=C1/NC(=O)[C@H](CCN)NC(=O)[C@H](CC(C)C)NC(=O)[C@H](CN)NC(=O)C[C@@H](CCCCCC(C)C)OC(=O)[C@H](CC(=O)O)NC(=O)[C@H](C(C)C)NC(=O)[C@@H](Cc2ccccc2)NC(=O)[C@H](CN)NC(=O)[C@H]([C@@H](C)O)NC1=O [Compound 5, Isopedopeptin E] ([Dap]L[Dab][X1]T[Dap][dF]VD; linker N-C via X3) | 32 (≈ 28.7 µM) |  |
| C/C=C1/NC(=O)[C@H](CCN)NC(=O)[C@H](CC(C)C)NC(=O)[C@H](CN)NC(=O)C[C@@H](CCCCCCCC(C)C)OC(=O)[C@H](CC(=O)O)NC(=O)[C@H](C(C)(C)O)NC(=O)[C@@H](Cc2ccccc2)NC(=O)[C@H](CN)NC(=O)[C@H]([C@@H](C)O)NC1=O [Compound 6, Isopedopeptin F] ([Dap]L[Dab][X1]T[Dap][dF][Val(3-OH)]D; linker N-C via X5) | 32 (≈ 27.6 µM) |  |
| C/C=C1/NC(=O)[C@H](CCN)NC(=O)[C@H](CC(C)C)NC(=O)[C@H](CN)NC(=O)C[C@@H](CCCC=CCCC(C)C)OC(=O)[C@H](CC(=O)O)NC(=O)[C@H](C(C)C)NC(=O)[C@@H](Cc2ccccc2)NC(=O)[C@H](CN)NC(=O)[C@H]([C@@H](C)O)NC1=O [Compound 7, Isopedopeptin G] ([Dap]L[Dab][X1]T[Dap][dF]VD; linker N-C via X4) | 8 to 16 (≈ 7.01 to 14 µM) | 8 (≈ 7.01 µM) |
| C/C=C1/NC(=O)[C@H](CCN)NC(=O)[C@H](CC(C)C)NC(=O)[C@H](CN)NC(=O)C[C@@H](CC=CCCCCC(C)C)OC(=O)[C@H](CC(=O)O)NC(=O)[C@H](C(C)C)NC(=O)[C@@H](Cc2ccccc2)NC(=O)[C@H](CN)NC(=O)[C@H]([C@@H](C)O)NC1=O [Compound 8, Isopedopeptin H] ([Dap]L[Dab][X1]T[Dap][dF]VD; linker N-C via X6) | 16 (≈ 14 µM) |  |
